pIC50: −log10 of the molar value.
Molecular target: T1, human Glucose-dependent Insulinotropic Polypeptide Receptor (hGIPR) (Homo sapiens, UniProt P48546)
T1 sequence (P48546 22-466): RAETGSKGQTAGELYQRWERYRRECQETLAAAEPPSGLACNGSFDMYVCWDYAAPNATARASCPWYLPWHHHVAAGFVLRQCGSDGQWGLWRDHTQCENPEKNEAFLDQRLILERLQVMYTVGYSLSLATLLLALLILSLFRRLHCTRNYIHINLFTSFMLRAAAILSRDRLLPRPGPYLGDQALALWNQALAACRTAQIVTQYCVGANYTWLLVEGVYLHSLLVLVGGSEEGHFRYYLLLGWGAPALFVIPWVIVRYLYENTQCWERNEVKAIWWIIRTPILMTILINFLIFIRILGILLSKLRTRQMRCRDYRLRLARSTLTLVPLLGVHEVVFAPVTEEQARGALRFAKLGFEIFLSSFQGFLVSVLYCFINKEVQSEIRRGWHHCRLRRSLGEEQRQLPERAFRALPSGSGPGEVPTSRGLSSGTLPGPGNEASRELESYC
Test: Functional in vitro GIPR antagonist potency assay (intracellular cAMP, HTRF) in CHO-K1 cells stably expressing hGIPR
Type: cell-based
Details: 2 h compound incubation, then hGIP at estimated EC80 for 30 min
Experimental: The functional in vitro antagonist potency for test compounds was determined by monitoring intracellular cyclic adenosine monophosphate (cAMP) levels in Chinese hamster ovary (CHO)-K1 cells stably expressing the human Glucose-dependent Insulinotropic Polypeptide Receptor (hGIPR). Following agonist activation, hGIPR associates with the G-protein complex causing the Gas subunit to exchange bound guanosine diphosphate (GDP) for guanosine triphosphate (GTP), followed by dissociation of the Gas-GTP complex. The activated Gas subunit can couple to downstream effectors to regulate the levels of second messengers or cAMP within the cell. Thereby, determination of intracellular cAMP levels allows for pharmacological characterization. Intracellular cAMP levels are quantitated using a homogenous assay utilizing the Homogeneous Time Resolved Fluorescence (HTRF) technology from Perkin Elmer. […] The two entities compete for binding to a monoclonal anti-cAMP antibody labeled with cryptate. […]
([…]: 5% CO2), with a micro-clime lid. […] ([…]: 5% CO2), after which intracellular cAMP levels were quantified and samples measured as described previously. […]
Data were analyzed using the ratio of fluorescence intensity at 620 and 665 nm for each well, extrapolated from the cAMP standard curve to express data as nanomolar (nM) cAMP for each well. […]

| pIC50 | Compound |
| --- | --- |
| 6.80 | CC(C)c1ccc(NC(=O)N2CCC[C@H]2C(=O)Nc2ccc3cc(C(=O)O)ccc3c2)cc1 [Compound 41A, 6-[(1-{[4-(propan-2-yl)phenyl]carbamoyl}prolyl)amino] naphthalene-2-carboxylic acid] |
| 8.17 | CC(C)c1ccc(NC(=O)N2CCC[C@H]2C(=O)Nc2ccc(-c3ccc(C(=O)O)cc3)cc2)cc1 [Compound 44A, 4′-[(1-{[4-(propan-2-yl)phenyl]carbamoyl}prolyl)amino][1,1′-biphenyl]-4-carboxylic acid] |

— patent US20250235510A1, “COMBINATION THERAPY USING GLUCOSE-DEPENDENT INSULINOTROPIC POLYPEPTIDE RECEPTOR ANTAGONIST COMPOUNDS AND GLP-1 RECEPTOR AGONIST PEPTIDES” (Pfizer Inc., priority 2024, published 2025)
